System in one assay: not listed separately
Briefly: Inhibition of sheep gastric H(+)/K(+)-ATPase-mediated inorganic phosphate liberation after 15 mins by Fiske Subbarow method in presence of ATP. The format is tissue-based, Ovis aries, Stomach.
Conditions: not given; call rule not given here
Turning to `CC(C)(C)OC(=O)NC(CCC(=O)OCc1ccccc1)C(=O)O` (configuration not stated), the IC50 – broadly, the concentration that gives 50% inhibition – is on record as “Not Active”. On the same count and under the same terms, the result for `CC(C)(C)OC(=O)NC(CCC(=O)O)C(=O)N1CCN(c2nsc3ccccc23)CC1` (configuration not stated) reads “Not Active”; that for `CC(C)(C)OC(=O)NC(CCC(=O)OCc1ccccc1)C(=O)N1CCN(c2nsc3ccccc23)CC1` (configuration not stated), “Not Active”. Same read-out and setting: the entry for `CC(C)(C)OC(=O)NC(CCC(=O)N1CCN(c2nsc3ccccc23)CC1)C(=O)N1CCN(c2nsc3ccccc23)CC1` (configuration not stated) is “Not Active”.

Still in this assay, the particulars now being: read-out: IC50.
On to `O=C(CCC(NC(=S)Nc1ccccc1)C(=O)N1CCN(c2nsc3ccccc23)CC1)N1CCN(c2nsc3ccccc23)CC1` (configuration not stated), for which the IC50 was 90 µM. On the same count and under the same terms, the result for `COc1ccccc1NC(=O)NC(CCC(=O)N1CCN(c2nsc3ccccc23)CC1)C(=O)N1CCN(c2nsc3ccccc23)CC1` (configuration not stated) reads 19 µM. The same measure, in the same setting: the figure for `COc1ccccc1NC(=S)NC(CCC(=O)N1CCN(c2nsc3ccccc23)CC1)C(=O)N1CCN(c2nsc3ccccc23)CC1` (configuration not stated) is 17 µM. Still for that read-out and setting: the figure for `O=C(CCC(NC(=S)Nc1cccc(Br)c1)C(=O)N1CCN(c2nsc3ccccc23)CC1)N1CCN(c2nsc3ccccc23)CC1` (configuration not stated) is 48 µM; for `O=C(Nc1cccc(F)c1)NC(CCC(=O)N1CCN(c2nsc3ccccc23)CC1)C(=O)N1CCN(c2nsc3ccccc23)CC1` (configuration not stated) it is 78 µM; for `O=C(Nc1cccc(Br)c1)NC(CCC(=O)N1CCN(c2nsc3ccccc23)CC1)C(=O)N1CCN(c2nsc3ccccc23)CC1` (configuration not stated) it is 50 µM. `O=C(Nc1ccc(Br)cc1)NC(CCC(=O)N1CCN(c2nsc3ccccc23)CC1)C(=O)N1CCN(c2nsc3ccccc23)CC1` (configuration not stated): the IC50 came to 46 µM. Consider `O=C(CCC(NC(=S)Nc1cccc(Cl)c1)C(=O)N1CCN(c2nsc3ccccc23)CC1)N1CCN(c2nsc3ccccc23)CC1` (configuration not stated), for which the IC50 is 60 µM.

As to `O=C(CCC(NC(=S)Nc1ccccc1Br)C(=O)N1CCN(c2nsc3ccccc23)CC1)N1CCN(c2nsc3ccccc23)CC1` (configuration not stated), the IC50 was found to be 44 µM. As to `O=C(CCC(NC(=S)Nc1ccc(F)cc1)C(=O)N1CCN(c2nsc3ccccc23)CC1)N1CCN(c2nsc3ccccc23)CC1` (configuration not stated), the IC50 was 70 µM. The same measure, in the same setting: the result for `O=C(Nc1cccc(Cl)c1)NC(CCC(=O)N1CCN(c2nsc3ccccc23)CC1)C(=O)N1CCN(c2nsc3ccccc23)CC1` (configuration not stated) reads 56 µM; that for `O=C(Nc1ccc(Cl)cc1)NC(CCC(=O)N1CCN(c2nsc3ccccc23)CC1)C(=O)N1CCN(c2nsc3ccccc23)CC1` (configuration not stated), 52 µM.

As to `COc1ccc2[nH]c([S+]([O-])Cc3ncc(C)c(OC)c3C)nc2c1` (configuration not stated) [OMEPRAZOLE], the IC50 turned out to be 84 µM. Take `O=C(Nc1ccccc1F)NC(CCC(=O)N1CCN(c2nsc3ccccc23)CC1)C(=O)N1CCN(c2nsc3ccccc23)CC1` (configuration not stated): the IC50 turned out to be 80 µM. On the same count and under the same terms, the result for `COc1ccc(NC(=O)NC(CCC(=O)N2CCN(c3nsc4ccccc34)CC2)C(=O)N2CCN(c3nsc4ccccc34)CC2)cc1` (configuration not stated) reads 6.2 µM; that for `O=C(Nc1ccc(F)cc1)NC(CCC(=O)N1CCN(c2nsc3ccccc23)CC1)C(=O)N1CCN(c2nsc3ccccc23)CC1` (configuration not stated), 72 µM; that for `O=C(CCC(NC(=S)Nc1ccccc1F)C(=O)N1CCN(c2nsc3ccccc23)CC1)N1CCN(c2nsc3ccccc23)CC1` (configuration not stated), 74 µM. On the same count and under the same terms, the figure for `COc1cccc(NC(=O)NC(CCC(=O)N2CCN(c3nsc4ccccc34)CC2)C(=O)N2CCN(c3nsc4ccccc34)CC2)c1` (configuration not stated) is 11 µM; for `COc1ccc(NC(=S)NC(CCC(=O)N2CCN(c3nsc4ccccc34)CC2)C(=O)N2CCN(c3nsc4ccccc34)CC2)cc1` (configuration not stated) it is 5.4 µM. Same read-out and setting: the figure for `O=C(Nc1ccccc1)NC(CCC(=O)N1CCN(c2nsc3ccccc23)CC1)C(=O)N1CCN(c2nsc3ccccc23)CC1` (configuration not stated) is 94 µM; for `COc1cccc(NC(=S)NC(CCC(=O)N2CCN(c3nsc4ccccc34)CC2)C(=O)N2CCN(c3nsc4ccccc34)CC2)c1` (configuration not stated) it is 10 µM; for `O=C(CCC(NC(=S)Nc1ccc(Cl)cc1)C(=O)N1CCN(c2nsc3ccccc23)CC1)N1CCN(c2nsc3ccccc23)CC1` (configuration not stated) it is 54 µM.

The species entered for another assay is Ovis aries. As to the kind of experiment: Ratio of omeprazole IC50 to compound IC50 for sheep gastric H(+)/K(+) ATPase. The format is tissue-based. The settings on record: Stomach.
With `COc1ccc(NC(=S)NC(CCC(=O)N2CCN(c3nsc4ccccc34)CC2)C(=O)N2CCN(c3nsc4ccccc34)CC2)cc1` (configuration not stated), the Ratio IC50 came out at 15.
